Results: article PMC5218480 (PLoS ONE, 2017)

Tested on: MV-4-11 cells
Test: Gene expression microarray analysis (Affymetrix PrimeView) and GSEA
Assay type: cell-based, human
Design: RFU PODN (11730768_x_at) / Fold change /veh PODN (11730768_x_at) / RFU LINC00158 (11744669_a_at) / Fold change /veh LINC00158 (11744669_a_at) / RFU DUSP10 (11751237_a_at) / Fold change /veh DUSP10 (11751237_a_at) / RFU ID3 (11757404_x_at) / Fold change /veh ID3 (11757404_x_at) / RFU PLEKHG5 (11737974_s_at) / Fold change /veh PLEKHG5 (11737974_s_at) / RFU LRRC4B (11730491_at) / Fold change /veh LRRC4B (11730491_at) / RFU GIMAP4 (11747438_a_at) / Fold change /veh GIMAP4 (11747438_a_at) / RFU KRT8 (11758183_x_at) / Fold change /veh KRT8 (11758183_x_at) / RFU CNN1 (11734310_a_at) / Fold change /veh CNN1 (11734310_a_at) / RFU VPS37D (11726825_at) / Fold change /veh VPS37D (11726825_at) / RFU C10orf10 (11716522_x_at) / Fold change /veh C10orf10 (11716522_x_at) / RFU KIR2DL2 /// KIR2DL4 /// KIR2DL5A /// KIR2DL5B /// KIR2DS1 /// KIR2DS2 /// KIR2DS3 /// KIR2DS4 /// KIR3DL3 /// KIR3DL3 /// KIR3DS1 (11738374_at) / Fold change /veh KIR2DL2 /// KIR2DL4 /// KIR2DL5A /// KIR2DL5B /// KIR2DS1 /// KIR2DS2 /// KIR2DS3 /// KIR2DS4 /// KIR3DL3 /// KIR3DL3 /// KIR3DS1 (11738374_at) / RFU C1QL1 (11718748_at) / Fold change /veh C1QL1 (11718748_at) / RFU TMPRSS4 (11747572_a_at) / Fold change /veh TMPRSS4 (11747572_a_at) / RFU HAMP (11756126_x_at) / Fold change /veh HAMP (11756126_x_at) / RFU RNFT2 (11725882_a_at) / Fold change /veh RNFT2 (11725882_a_at) / RFU NR4A2 (11747474_a_at) / Fold change /veh NR4A2 (11747474_a_at) / RFU ABCC12 (11746883_a_at) / Fold change /veh ABCC12 (11746883_a_at) / RFU TMEM136 (11760407_x_at) / Fold change /veh TMEM136 (11760407_x_at) / RFU CLDN22 /// WWC2 (11732394_at) / Fold change /veh CLDN22 /// WWC2 (11732394_at) / RFU HLA-DPB1 (11760878_x_at) / Fold change /veh HLA-DPB1 (11760878_x_at) / RFU SPINT1 (11716480_a_at) / Fold change /veh SPINT1 (11716480_a_at) / RFU GAP43 (11754022_s_at) / Fold change /veh GAP43 (11754022_s_at) / RFU A4GNT (11735810_at) / Fold change /veh A4GNT (11735810_at) / RFU PRB3 (11715151_x_at) / Fold change /veh PRB3 (11715151_x_at) / RFU TUBB4B (11761932_at) / Fold change /veh TUBB4B (11761932_at) / RFU CAPN14 (11732068_a_at) / Fold change /veh CAPN14 (11732068_a_at) / RFU TMCC2 (11721928_a_at) / Fold change /veh TMCC2 (11721928_a_at) / RFU IRGQ (11745062_a_at) / Fold change /veh IRGQ (11745062_a_at) / RFU FAM174B (11720279_a_at) / Fold change /veh FAM174B (11720279_a_at) / RFU TMPRSS4 (11748680_a_at) / Fold change /veh TMPRSS4 (11748680_a_at) / RFU FAM212B (11763350_a_at) / Fold change /veh FAM212B (11763350_a_at) / RFU PLEKHG5 (11743358_a_at) / Fold change /veh PLEKHG5 (11743358_a_at) / RFU ZSCAN30 (11745921_a_at) / Fold change /veh ZSCAN30 (11745921_a_at) / RFU CMKLR1 (11741424_a_at) / Fold change /veh CMKLR1 (11741424_a_at) / RFU LOC101060620 /// MAPK8IP1 (11723275_at) / Fold change /veh LOC101060620 /// MAPK8IP1 (11723275_at) / RFU SPTSSB (11747773_x_at) / Fold change /veh SPTSSB (11747773_x_at) / RFU PRSS12 (11739890_at) / Fold change /veh PRSS12 (11739890_at) / RFU BIN1 (11741810_x_at) / Fold change /veh BIN1 (11741810_x_at) / RFU WNT11 (11732464_a_at) / Fold change /veh WNT11 (11732464_a_at) / RFU C10orf10 (11716521_a_at) / Fold change /veh C10orf10 (11716521_a_at) / RFU C5orf56 (11738089_at) / Fold change /veh C5orf56 (11738089_at) / RFU CYB561 (11721691_x_at) / Fold change /veh CYB561 (11721691_x_at) / RFU ANKRD19P (11752326_a_at) / Fold change /veh ANKRD19P (11752326_a_at) / RFU OR2T12 /// OR2T33 /// OR2T8 (11738714_s_at) / Fold change /veh OR2T12 /// OR2T33 /// OR2T8 (11738714_s_at) / RFU VCAN (11748164_a_at) / Fold change /veh VCAN (11748164_a_at) / RFU JSRP1 (11732532_at) / Fold change /veh JSRP1 (11732532_at) / RFU KRTAP10-11 (11738290_x_at) / Fold change /veh KRTAP10-11 (11738290_x_at) / RFU MYO3A (11730013_a_at) / Fold change /veh MYO3A (11730013_a_at) / RFU EBF3 (11725865_a_at) / Fold change /veh EBF3 (11725865_a_at) / RFU CAMK2N1 (11719241_x_at) / Fold change /veh CAMK2N1 (11719241_x_at) / RFU C5orf56 (11738088_a_at) / Fold change /veh C5orf56 (11738088_a_at) / RFU OLFML3 (11715873_a_at) / Fold change /veh OLFML3 (11715873_a_at) / RFU LOC100653217 /// NTM (11731650_a_at) / Fold change /veh LOC100653217 /// NTM (11731650_a_at) / RFU MAPK11 (11762145_a_at) / Fold change /veh MAPK11 (11762145_a_at) / RFU FIZ1 (11724087_x_at) / Fold change /veh FIZ1 (11724087_x_at) / RFU OASL (11726364_x_at) / Fold change /veh OASL (11726364_x_at) / RFU SOX15 (11748057_x_at) / Fold change /veh SOX15 (11748057_x_at) / RFU CD79A (11719716_a_at) / Fold change /veh CD79A (11719716_a_at) / RFU HIST1H1D (11736915_at) / Fold change /veh HIST1H1D (11736915_at) / RFU CASKIN2 (11723855_a_at) / Fold change /veh CASKIN2 (11723855_a_at) / RFU LOC730098 (11760151_x_at) / Fold change /veh LOC730098 (11760151_x_at) / RFU OR4N2 (11742367_at) / Fold change /veh OR4N2 (11742367_at) / RFU PRRT2 (11749266_a_at) / Fold change /veh PRRT2 (11749266_a_at) / RFU SNX32 (11753110_a_at) / Fold change /veh SNX32 (11753110_a_at) / RFU CDHR5 (11726645_a_at) / Fold change /veh CDHR5 (11726645_a_at) / RFU RCAN1 (11760418_a_at) / Fold change /veh RCAN1 (11760418_a_at) / RFU FAM167A (11723789_a_at) / Fold change /veh FAM167A (11723789_a_at) / RFU FAM26E (11764081_at) / Fold change /veh FAM26E (11764081_at) / RFU ISYNA1 (11749810_s_at) / Fold change /veh ISYNA1 (11749810_s_at) / RFU ACY1 (11761880_at) / Fold change /veh ACY1 (11761880_at) / RFU 11764098_at / Fold change /veh 11764098_at / RFU SAMD14 (11745864_x_at) / Fold change /veh SAMD14 (11745864_x_at) / RFU NPB (11741838_a_at) / Fold change /veh NPB (11741838_a_at) / RFU TMPRSS6 (11731388_a_at) / Fold change /veh TMPRSS6 (11731388_a_at) / RFU KRTAP10-2 (11738614_at) / Fold change /veh KRTAP10-2 (11738614_at) / RFU ARHGAP8 /// PRR5-ARHGAP8 (11727945_x_at) / Fold change /veh ARHGAP8 /// PRR5-ARHGAP8 (11727945_x_at) / RFU KRTAP5-7 /// NADSYN1 (11734609_at) / Fold change /veh KRTAP5-7 /// NADSYN1 (11734609_at) / RFU RASL12 (11751679_a_at) / Fold change /veh RASL12 (11751679_a_at) / RFU CDKN2B (11736163_a_at) / Fold change /veh CDKN2B (11736163_a_at) / RFU PRF1 (11729649_at) / Fold change /veh PRF1 (11729649_at) / RFU, ZNF638 /// ZNF638-IT1 / Fold change vs veh, ZNF638 /// ZNF638-IT1 / RFU, PANK3 / Fold change vs veh, PANK3 / RFU, SH3YL1 / Fold change vs veh, SH3YL1 / RFU, ZEB2 / Fold change vs veh, ZEB2 / RFU, NRIP1 / Fold change vs veh, NRIP1 / RFU, PTTG1IP / Fold change vs veh, PTTG1IP / RFU, CAPN2 / Fold change vs veh, CAPN2 / RFU, MED14 / Fold change vs veh, MED14 / RFU, SNORA58 / Fold change vs veh, SNORA58 / RFU, C1orf63 / Fold change vs veh, C1orf63 / RFU, LRRFIP1 / Fold change vs veh, LRRFIP1 / RFU, NDUFAF7 / Fold change vs veh, NDUFAF7 / RFU, SLC12A2 / Fold change vs veh, SLC12A2 / RFU, IBTK / Fold change vs veh, IBTK / RFU, ESF1 / Fold change vs veh, ESF1 / Fold change vs veh, TMEM50B / RFU, TAOK1 / Fold change vs veh, TAOK1 / RFU, ACBD3 / Fold change vs veh, ACBD3 / RFU, TMA16 / Fold change vs veh, TMA16 / RFU, RWDD3 / Fold change vs veh, RWDD3 / RFU, BCAT1 / Fold change vs veh, BCAT1 / RFU, EDEM3 / Fold change vs veh, EDEM3 / RFU, TMEM33 / Fold change vs veh, TMEM33 / RFU, WDR75 / Fold change vs veh, WDR75 / RFU, AHCTF1 / Fold change vs veh, AHCTF1 / RFU, TFRC / Fold change vs veh, TFRC / RFU, ZDHHC17 / Fold change vs veh, ZDHHC17 / RFU, NOM1 / Fold change vs veh, NOM1 / RFU, ARL8B / Fold change vs veh, ARL8B / RFU, ZBTB11 / Fold change vs veh, ZBTB11 / RFU, TAMM41 / Fold change vs veh, TAMM41 / RFU, KIAA1704 /// LOC100996395 / Fold change vs veh, KIAA1704 /// LOC100996395 / RFU, ING1 / Fold change vs veh, ING1 / RFU, TRMT61B / Fold change vs veh, TRMT61B / RFU, FUBP3 / Fold change vs veh, FUBP3 / RFU, TP53 / Fold change vs veh, TP53 / RFU, TNKS2 / Fold change vs veh, TNKS2 / RFU, ZFP14 / Fold change vs veh, ZFP14 / RFU, ACTR2 / Fold change vs veh, ACTR2 / RFU, PPP3R1 / Fold change vs veh, PPP3R1 / RFU, PIK3R1 / Fold change vs veh, PIK3R1 / RFU, HNRNPA1 / Fold change vs veh, HNRNPA1 / RFU, RNF170 / Fold change vs veh, RNF170 / RFU, ZNF28 / Fold change vs veh, ZNF28 / RFU, RNGTT / Fold change vs veh, RNGTT / RFU, OGT / Fold change vs veh, OGT / RFU, BRD1 / Fold change vs veh, BRD1 / RFU, MARS / Fold change vs veh, MARS / RFU, ZNF655 / Fold change vs veh, ZNF655 / RFU, FAHD1 / Fold change vs veh, FAHD1 / RFU, BDP1 / Fold change vs veh, BDP1 / RFU, LRRCC1 / Fold change vs veh, LRRCC1 / RFU, ARID1A / Fold change vs veh, ARID1A / RFU, ZNF146 / Fold change vs veh, ZNF146 / RFU, ZNF330 / Fold change vs veh, ZNF330 / RFU, GPN3 / Fold change vs veh, GPN3 / RFU, C9orf123 / Fold change vs veh, C9orf123 / RFU, N4BP2L2 / Fold change vs veh, N4BP2L2 / RFU, ARFIP1 / Fold change vs veh, ARFIP1 / RFU, FAM179B / Fold change vs veh, FAM179B / RFU, BCL10 / Fold change vs veh, BCL10 / RFU, UHRF1BP1L / Fold change vs veh, UHRF1BP1L / RFU, BET1 / Fold change vs veh, BET1 / RFU, CNOT2 / Fold change vs veh, CNOT2 / RFU, ZNF268 / Fold change vs veh, ZNF268 / Fold change vs veh, ZNF507 / RFU, DGCR2 / Fold change vs veh, DGCR2 / RFU, WDSUB1 / Fold change vs veh, WDSUB1 / Fold change vs veh, HSP90B1 /// MIR3652 / RFU, ADSS / Fold change vs veh, ADSS / RFU, GK / Fold change vs veh, GK / RFU, ZNF148 / Fold change vs veh, ZNF148 / RFU, TAF9 / Fold change vs veh, TAF9 / RFU, SLC1A5 / Fold change vs veh, SLC1A5 / RFU, SLMO2 / Fold change vs veh, SLMO2 / RFU, ABCC4 / Fold change vs veh, ABCC4 / RFU, LOC101060439 /// RAP1B / Fold change vs veh, LOC101060439 /// RAP1B / RFU, RFX7 / Fold change vs veh, RFX7 / RFU, GTPBP10 / Fold change vs veh, GTPBP10 / RFU, CNEP1R1 / Fold change vs veh, CNEP1R1 / RFU, BIVM-ERCC5 /// ERCC5 / Fold change vs veh, BIVM-ERCC5 /// ERCC5 / RFU, ILF3 / Fold change vs veh, ILF3 / RFU 11762660_at / Fold change /veh 11762660_at / RFU VCAN (11757783_s_at) / Fold change /veh VCAN (11757783_s_at) / RFU DDX43 (11728927_at) / Fold change /veh DDX43 (11728927_at) / RFU KRT8 (11758188_x_at) / Fold change /veh KRT8 (11758188_x_at) / RFU NKD1 (11759106_at) / Fold change /veh NKD1 (11759106_at) / RFU SRD5A1 (11742802_a_at) / Fold change /veh SRD5A1 (11742802_a_at) / RFU TPSAB1 /// TPSB2 (11721975_s_at) / Fold change /veh TPSAB1 /// TPSB2 (11721975_s_at) / RFU GSTM3 (11746129_a_at) / Fold change /veh GSTM3 (11746129_a_at) / RFU IL23R (11737362_x_at) / Fold change /veh IL23R (11737362_x_at) / RFU TMEM51 (11727254_a_at) / Fold change /veh TMEM51 (11727254_a_at) / RFU PIWIL2 (11732686_x_at) / Fold change /veh PIWIL2 (11732686_x_at) / RFU ORM1 (11744905_x_at) / Fold change /veh ORM1 (11744905_x_at) / RFU CCDC152 (11743942_at) / Fold change /veh CCDC152 (11743942_at) / RFU ECM1 (11717891_a_at) / Fold change /veh ECM1 (11717891_a_at) / RFU IL23R (11748794_a_at) / Fold change /veh IL23R (11748794_a_at) / RFU TNFAIP8L3 (11732012_x_at) / Fold change /veh TNFAIP8L3 (11732012_x_at) / RFU MBOAT4 (11741988_at) / Fold change /veh MBOAT4 (11741988_at) / RFU 11764193_at / Fold change /veh 11764193_at / RFU TMEM53 (11763286_at) / Fold change /veh TMEM53 (11763286_at) / RFU MAGEB2 (11727129_at) / Fold change /veh MAGEB2 (11727129_at) / RFU TMEM200A (11744735_a_at) / Fold change /veh TMEM200A (11744735_a_at) / RFU CCDC152 (11751479_a_at) / Fold change /veh CCDC152 (11751479_a_at) / RFU FAM211A (11726209_a_at) / Fold change /veh FAM211A (11726209_a_at) / RFU RGS16 (11746705_a_at) / Fold change /veh RGS16 (11746705_a_at) / RFU VCAN (11755009_s_at) / Fold change /veh VCAN (11755009_s_at) / RFU RHOB (11743442_s_at) / Fold change /veh RHOB (11743442_s_at) / RFU RGS16 (11720943_a_at) / Fold change /veh RGS16 (11720943_a_at) / RFU RGS16 (11720944_at) / Fold change /veh RGS16 (11720944_at) / RFU, VPS4B / Fold change vs veh, VPS4B / RFU, CREB1 / Fold change vs veh, CREB1 / RFU, DNAJC13 / Fold change vs veh, DNAJC13 / RFU, GNAQ / Fold change vs veh, GNAQ / RFU, CDK5R1 / Fold change vs veh, CDK5R1 / RFU, ZRANB3 / Fold change vs veh, ZRANB3 / RFU, CUL4A / Fold change vs veh, CUL4A / RFU, CCNY / Fold change vs veh, CCNY / RFU, UFL1 / Fold change vs veh, UFL1 / RFU, COG3 / Fold change vs veh, COG3 / RFU, DIAPH2 / Fold change vs veh, DIAPH2 / RFU, SKA2 / Fold change vs veh, SKA2 / RFU, AFF3 / Fold change vs veh, AFF3 / RFU, LMF1 / Fold change vs veh, LMF1 / RFU, IPO11 / Fold change vs veh, IPO11 / RFU, DFFB / Fold change vs veh, DFFB / RFU, FOXP1 / Fold change vs veh, FOXP1 / RFU, CARD8 / Fold change vs veh, CARD8 / RFU, STRN3 / Fold change vs veh, STRN3 / RFU, ADK / Fold change vs veh, ADK / RFU, RASSF2 / Fold change vs veh, RASSF2 / RFU, WIPF1 / Fold change vs veh, WIPF1 / RFU, LARP1B / Fold change vs veh, LARP1B / RFU, RASA1 / Fold change vs veh, RASA1 / RFU, RB1 / Fold change vs veh, RB1 / RFU, PPFIA1 / Fold change vs veh, PPFIA1 / RFU, MAT2A / Fold change vs veh, MAT2A / RFU, CCT5 / Fold change vs veh, CCT5 / RFU, WDR92 / Fold change vs veh, WDR92 / RFU, CUX1 / Fold change vs veh, CUX1 / RFU, TTC7A / Fold change vs veh, TTC7A / RFU, TMEM135 / Fold change vs veh, TMEM135 / RFU, DEPTOR / Fold change vs veh, DEPTOR / RFU, CPM / Fold change vs veh, CPM / RFU, DNAJB6 / Fold change vs veh, DNAJB6 / RFU, CACNA2D3 / Fold change vs veh, CACNA2D3 / RFU, DTX4 / Fold change vs veh, DTX4 / RFU, TFCP2 / Fold change vs veh, TFCP2 / RFU, GMCL1 /// GMCL1P1 / Fold change vs veh, GMCL1 /// GMCL1P1 / RFU, AEBP2 / Fold change vs veh, AEBP2 / RFU, SNHG1 /// SNORD22 /// SNORD25 /// SNORD26 /// SNORD27 /// SNORD28 /// SNORD29 /// SNORD31 / Fold change vs veh, SNHG1 /// SNORD22 /// SNORD25 /// SNORD26 /// SNORD27 /// SNORD28 /// SNORD29 /// SNORD31 / Fold change (Aza/veh), C12orf56 (ProbeSet 11735607_a_at) / Fold change (ACY-1035/veh), C12orf56 (ProbeSet 11735607_a_at) / Fold change (Aza/veh), FGFR1OP (ProbeSet 11751329_s_at) / Fold change (ACY-1035/veh), FGFR1OP (ProbeSet 11751329_s_at) / Fold change (Aza/veh), VPS36 (ProbeSet 11739960_a_at) / Fold change (ACY-1035/veh), VPS36 (ProbeSet 11739960_a_at) / RFU SYPL1 (11715823_x_at) / Fold change /veh SYPL1 (11715823_x_at) / RFU IGFBP7 (11715501_s_at) / Fold change /veh IGFBP7 (11715501_s_at) / RFU REEP3 (11722064_at) / Fold change /veh REEP3 (11722064_at) / RFU IGLL1 (11728026_x_at) / Fold change /veh IGLL1 (11728026_x_at): dose or concentration left out as unconfirmed
Conditions: MV-4-11 cells, 48 hours

## Nc1ccc(-c2cccs2)cc1NC(=O)c1ccc2c(c1)cc(C1CC1)n2CCN1CCOCC1 [ACY-1035]
  Fold change /veh FIZ1 (11724087_x_at): 1.06
